Test results as given in patent US10266550B2, “Bacterial topoisomerase I inhibitors with antibacterial activity” (The Florida International University Board of Trustees, priority 2016, dated 2019).
≈ marks a conversion by molar mass, not a printed value. Like-named read-outs stand apart in the source and are kept apart here.

How the values were obtained:
[1] = test system: E. coli Imp4213 (BAS3023); assay: MIC, microdilution in Mueller-Hinton Broth; assay type: cell-based; settings: for MIC: Escherichia coli, read-out: Whole cell based antibacterial activity (MIC) E. coli Imp4213 (BAS3023), membrane permeable imp mutant; for Whole cell based antibacterial activity (MIC) E. coli Imp4213 (BAS3023): membrane permeable imp mutant
E. coli (MG1655) WT = assay: MIC, microdilution in Mueller-Hinton Broth; settings: wild type, read-out: Whole cell based antibacterial activity (MIC) E. coli (MG1655) WT
E. coli topoisomerase I = E. coli topoisomerase I (Escherichia coli (strain K12), UniProt P06612); assay: biochemical; assay type: biochemical
Sequence of E. coli topoisomerase I (P06612 whole entry, looked up): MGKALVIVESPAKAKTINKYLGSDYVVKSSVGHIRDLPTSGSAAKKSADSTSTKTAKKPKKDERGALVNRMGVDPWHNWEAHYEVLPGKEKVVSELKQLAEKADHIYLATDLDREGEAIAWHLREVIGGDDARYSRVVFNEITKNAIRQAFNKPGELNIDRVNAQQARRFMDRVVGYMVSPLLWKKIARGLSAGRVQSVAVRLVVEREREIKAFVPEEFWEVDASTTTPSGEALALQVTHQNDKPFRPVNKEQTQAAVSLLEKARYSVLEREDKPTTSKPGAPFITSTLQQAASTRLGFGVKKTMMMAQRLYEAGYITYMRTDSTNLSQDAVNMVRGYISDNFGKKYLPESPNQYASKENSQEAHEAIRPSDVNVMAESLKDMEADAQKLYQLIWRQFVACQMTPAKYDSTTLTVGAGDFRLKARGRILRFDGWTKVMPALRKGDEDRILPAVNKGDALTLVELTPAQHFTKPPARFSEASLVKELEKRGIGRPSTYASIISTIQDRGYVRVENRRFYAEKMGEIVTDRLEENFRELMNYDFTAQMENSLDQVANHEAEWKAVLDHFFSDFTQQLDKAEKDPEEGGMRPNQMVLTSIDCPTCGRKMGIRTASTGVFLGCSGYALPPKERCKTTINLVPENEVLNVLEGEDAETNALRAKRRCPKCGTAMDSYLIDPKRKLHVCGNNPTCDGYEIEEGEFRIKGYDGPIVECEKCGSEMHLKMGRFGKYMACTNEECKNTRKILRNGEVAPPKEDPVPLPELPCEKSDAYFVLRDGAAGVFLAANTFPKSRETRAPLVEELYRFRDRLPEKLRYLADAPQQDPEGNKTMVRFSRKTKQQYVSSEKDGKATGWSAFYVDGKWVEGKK
Protocol: Recombinant E. coli topoisomerase I and gyrase expressed in E. coli were purified as described previously.
E. coli Topoisomerase I Relaxation Activity Inhibition Assay
The relaxation activity of E. coli topoisomerase I was assayed in a buffer containing 10 mM Tris-HCl, pH 8.0, 50 mM NaCl, 0.1 mg/mL gelatin, and 0.5 mM MgCl2. Half microliter from the appropriate stock solutions of compounds dissolved in the solvent (DMSO) or the solvent alone (control) was mixed with 9.5 μL of the reaction buffer containing 10 ng of enzyme before the addition of 10 μL of reaction buffer containing 200 ng of supercoiled pBAD/Thio plasmid DNA purified by cesium chloride gradient as substrate. Following incubation at 37° C. for 30 min, the reactions were terminated by the addition of 4 μL of a stop buffer (50% glycerol, 50 mM EDTA, and 0.5% (v/v) bromophenol blue), and analyzed by agarose gel electrophoresis. The gels were stained in ethidium bromide and photographed under UV light.

[2] = test system: B. subtilis (ATCC 6633) WT; assay: MIC, microdilution in Mueller-Hinton Broth; settings: read-out: Whole cell based antibacterial activity (MIC) B. subtilis (ATCC 6633) WT
Human topoisomerase I = Human topoisomerase I (Homo sapiens (Human), UniProt P11387); assay: Human topoisomerase I relaxation inhibition assay; assay type: biochemical; settings: read-out: Topoisomerase inhibitory activity (IC50) Human topo I (type IB)
Sequence of Human topoisomerase I (P11387 whole entry): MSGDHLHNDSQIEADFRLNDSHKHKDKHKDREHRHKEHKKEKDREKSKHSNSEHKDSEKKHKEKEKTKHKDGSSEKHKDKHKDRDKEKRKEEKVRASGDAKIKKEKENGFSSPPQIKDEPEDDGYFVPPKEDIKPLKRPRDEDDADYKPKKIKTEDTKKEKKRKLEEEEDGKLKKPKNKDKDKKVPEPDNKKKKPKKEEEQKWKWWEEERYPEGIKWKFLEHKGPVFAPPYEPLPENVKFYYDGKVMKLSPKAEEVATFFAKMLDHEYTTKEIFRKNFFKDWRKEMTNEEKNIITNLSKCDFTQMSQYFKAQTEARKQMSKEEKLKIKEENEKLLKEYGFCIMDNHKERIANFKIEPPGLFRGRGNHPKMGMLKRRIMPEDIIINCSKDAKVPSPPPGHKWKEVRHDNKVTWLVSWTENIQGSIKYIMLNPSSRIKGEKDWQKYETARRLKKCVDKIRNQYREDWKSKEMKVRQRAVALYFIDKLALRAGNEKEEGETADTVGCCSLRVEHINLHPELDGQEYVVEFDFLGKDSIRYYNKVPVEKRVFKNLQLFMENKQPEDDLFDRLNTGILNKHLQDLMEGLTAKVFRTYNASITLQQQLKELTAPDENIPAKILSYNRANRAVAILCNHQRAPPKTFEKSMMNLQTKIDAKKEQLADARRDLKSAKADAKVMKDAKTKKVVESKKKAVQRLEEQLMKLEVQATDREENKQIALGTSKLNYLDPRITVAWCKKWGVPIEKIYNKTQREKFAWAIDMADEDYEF
Protocol: Human topoisomerase I relaxation assays were carried out with 0.5 U of enzyme in reaction buffer supplied by the manufacturer. The enzyme was mixed with the indicated concentration of compound dissolved before 200 ng of supercoiled pBAD/Thio plasmid DNA was added in the same buffer, for a final volume of 20 μL. Following incubation at 37° C. for 30 minutes, the reactions were terminated with a buffer containing 5% SDS, 0.25% bromophenol blue, and 25% glycerol, and analyzed by agarose gel electrophoresis.
Human topoisomerase I and topoisomerase IIα were purchased from TopoGen (Buena vista, CO, USA).

Vero cells = assay: Vero cell cytotoxicity assay; assay type: cell-based; settings: for IC50: cytotoxicity
Protocol: MICs of compounds against M. tuberculosis were determined by a modified microplate Alamar blue assay (MABA). Vero cell cytotoxicity assay was performed as previously described.

M. tuberculosis (H37Rv) = assay: MIC, microplate Alamar blue assay (MABA); assay type: cell-based; settings: MABA, read-out: Whole cell based antibacterial activity (MIC) M. tuberculosis (H37Rv)
[3] = experimental, converted from IC50
[4] = Table 3, E. coli topoisomerase I, single values set for ranges and bounds, read-out: IC50 (μM) used for CoMFA
[5] = relaxation of supercoiled plasmid DNA, read-out: Topoisomerase inhibitory activity (IC50) E. coli topo I (type IA)
[6] = Bacillus subtilis, ATCC6633, wild type
[7] = Topoisomerase inhibitory activity (IC50) E. coli topo I (type IA), relaxation of supercoiled plasmid DNA

Structure (SMILES)	MIC [1]	MIC (E. coli (MG1655) WT; Escherichia coli, MG1655)	PIC50 (pIC50 = −log IC50) (E. coli topoisomerase I; [3])	IC50 (E. coli topoisomerase I; [5])	other results
CCOC(=O)c1cn2c3c(c(F)c(F)cc3c1=O)Oc1cc([N+](=O)[O-])ccc1-2 [Compound 6a, Ethyl 5,6-difluoro-9-nitro-3-oxo-3H-pyrido[3,2,1-kl]phenoxazine-2-carboxylate]	50 µM (≈ 19.4 µg/mL)	> 200 µM	4.81		
CCOC(=O)c1cn2c3c(c(F)c(F)cc3c1=O)Oc1cc(C#N)ccc1-2 [Compound 6b, Ethyl 9-cyano-5,6-difluoro-3-oxo-3H-pyrido[3,2,1-kl]phenoxazine-2-carboxylate]		> 200 µM	4.51		
CCOC(=O)c1cn2c3c(c(F)c(F)cc3c1=O)Oc1cc(C(F)(F)F)ccc1-2 [Compound 6c, Ethyl 5,6-difluoro-3-oxo-9-(trifluoromethyl)-3H-pyrido[3,2, I-kl]phenoxazine-2-carboxylate]			3.60	> 125 µM	MIC ([2]; wild type): >200 µM; Whole cell based antibacterial activity (MIC) E. coli Imp4213 (BAS3023) [1]: >200 µM; MIC (E. coli (MG1655) WT): >200 µM; activity against topoisomerase I when tested at 125 μM (E. coli topoisomerase I): inactive; IC50 (E. coli topoisomerase I; [4]): 250 µM
O=C(O)c1cn2c3c(c(F)c(F)cc3c1=O)Oc1cc([N+](=O)[O-])ccc1-2 [Compound 7a, 5,6-Difluoro-9-nitro-3-oxo-3H-pyrido[3,2,1-kl]phenoxazine-2-carboxylic acid]	0.78 µM (≈ 0.281 µg/mL)	200 µM (≈ 72 µg/mL)	4.81		
N#Cc1ccc2c(c1)Oc1c(F)c(F)cc3c(=O)c(C(=O)O)cn-2c13 [Compound 7b, 9-Cyano-5,6-d fluoro-3-oxo-3H-pyrido[3,2,1-d]phenoxazine-2-carboxylic acid]			4.51	31.2 µM	MIC ([2]; wild type): >200 µM; Whole cell based antibacterial activity (MIC) E. coli Imp4213 (BAS3023) [1]: 200 µM; MIC (E. coli (MG1655) WT): >200 µM; IC50 (E. coli topoisomerase I; [4]): 31.2 µM
O=C(O)c1cn2c3c(c(F)c(F)cc3c1=O)Oc1cc(C(F)(F)F)ccc1-2 [Compound 7c, 5,6-Difluoro-3-oxo-9-(trifluoromethyl)-3H-pyrido[3,2,1-kl]phenoxazine-2-carboxylic acid]		> 200 µM		> 125 µM	activity against topoisomerase I when tested at 125 μM (E. coli topoisomerase I): inactive; IC50 (E. coli topoisomerase I; IC50 (μM) used for CoMFA, Table 3, E. coli topoisomerase I, single values set for ranges and bounds): 250 µM; IC50 (E. coli topoisomerase I; PIC50 (pIC50 = −log IC50), experimental, converted from IC50): 245 µM
CC(=O)c1ccc2c(c1)Oc1c(F)c(F)cc3c(=O)c(C(=O)O)cn-2c13 [Compound 7d, 9-A cetyl-5,6-difluoro-3-oxo-3H-pyrido[3,2,1-kl]phenoxazine-2-carboxylic acid]		> 200 µM	4.81		MIC [2, 6]: > 200 µM
CCOC(=O)c1cn2c3c(c(N4CCN(C)CC4)c(F)cc3c1=O)Oc1cc([N+](=O)[O-])ccc1-2 [Compound 9, Ethyl-5-fluoro-6-(4-methylpiperazin-1-yl)-9-nitro-3-oxo-3H-pyrido[3,2,1-kl]phenoxazine-2-carboxylate]	25 µM (≈ 11.7 µg/mL)	> 200 µM	5.71		
O=C(O)c1cn2c3c(c(N4CCNCC4)c(F)cc3c1=O)Oc1cc([N+](=O)[O-])ccc1-2 [Compound 10b, 5-Fluoro-9-nitro-3-oxo-6-(piperazin-1-yl)-3H-pyrido[3,2,1-kl]phenoxazine-2-carboxylic acid]		> 200 µM	5.41		MIC [2, 6]: > 200 µM
Nc1ccc2c(c1)Oc1c(N3CCNCC3)c(F)cc3c(=O)c(C(=O)O)cn-2c13 [Compound 11b, 9-Amino-5-fluoro-3-oxo-6-(piperazin-1-yl)-3H-pyrido[3,2,1-kl]phenoxazine-2-carboxylic acid]	0.39 µM (≈ 0.155 µg/mL)	> 200 µM	6.62		IC50 (Human topoisomerase I): 7.8 µM; IC50 (Vero cells; Chlorocebus sabaeus, Vero): > 126 µM; IC50 (E. coli topoisomerase I; [7]): 0.24 to 0.97 µM
CC1CCN(c2c(F)cc3c(=O)c(C(=O)O)cn4c3c2Oc2cc(N)ccc2-4)CC1 [Compound 11c, 9-Amino-5-fluoro-6-(4-methylpiperidin-1-yl)-3-oxo-3H-pyrido[3,2,1-kl]phenoxazine-2-carboxylic acid]	3.12 µM (≈ 1.28 µg/mL)	> 200 µM	5.41		IC50 (E. coli topoisomerase I; [7]): 3.9 to 15.6 µM
Nc1ccc2c(c1)Oc1c(NC34CC5CC(CC(C5)C3)C4)c(F)cc3c(=O)c(C(=O)O)cn-2c13 [Compound 11f, 6-(((3s, 5s, 7s)-Adamantan-1-yl)amino)-9-amino-5-fluoro-3-oxo-3H-pyrido[3,2,1-kl]phenoxazine-2-carboxylic acid]			5.23	3.9 to 7.8 µM	MIC ([2]; wild type): 12.5 µM (≈ 5.77 µg/mL); Whole cell based antibacterial activity (MIC) E. coli Imp4213 (BAS3023) [1]: 3.12 µM; SI (Selectivity index = cytotoxic IC50 against Vero cells/MIC against M. tuberculosis) (Vero cells): 0.8; IC50 (Vero cells): 30.7 µM; MIC (M. tuberculosis (H37Rv)): 38.4 µM (≈ 17.7 µg/mL); MIC (E. coli (MG1655) WT): >200 µM; IC50 (E. coli topoisomerase I; [4]): 5.85 µM
Nc1ccc2c(c1)Oc1c(NC3CCCCC3)c(F)cc3c(=O)c(C(=O)O)cn-2c13 [Compound 11i, 9-Amino-6-(cyclohexylamino)-5-fluoro-3-oxo-3H-pyrido[3,2,1-kl]phenoxazine-2-carboxylic acid]	25 µM (≈ 10.2 µg/mL)	> 200 µM	5.41		IC50 (E. coli topoisomerase I; [7]): 3.9 to 15.6 µM
Nc1ccc2c(c1)Oc1c(NC3CCCC3)c(F)cc3c(=O)c(C(=O)O)cn-2c13 [Compound 11j, 9-Amino-6-(cyclopentylamino)-5-fluoro-3-oxo-3H-pyrido[3,2,1-kl]phenoxazine-2-carboxylic acid]	25 µM (≈ 9.88 µg/mL)	> 200 µM	5.41		IC50 (E. coli topoisomerase I; [7]): 3.9 to 15.6 µM
CCCCCCNc1c(F)cc2c(=O)c(C(=O)O)cn3c2c1Oc1cc(N)ccc1-3 [Compound 11k, 9-Amino-5-fluoro-6-(hexylamino)-3-oxo-3H-pyrido[3,2,1-kl]phenoxazine-2-carboxylic acid]		> 200 µM	4.81		MIC [2, 6]: > 200 µM; IC50 (E. coli topoisomerase I; [7]): 3.9 to 15.6 µM
CC(=O)Nc1ccc2c(c1)Oc1c(F)c(F)cc3c(=O)c(C(=O)O)cn-2c13 [Compound 12, 9-acetamido-5,6-difluoro-3-oxo-3H-pyrido[3,2,1-kl]phenoxazine-2-carboxylic acid]		> 200 µM	5.11		MIC [2, 6]: > 200 µM
CC(C)(C)OC(=O)N[C@H]1CCN(c2c(F)cc3c(=O)c(C(=O)O)cn4c3c2Oc2cc(N)ccc2-4)C1 [Compound 15a, (S)-9-amino-6-(3-((tert-butoxycarbonyl)amino)pyrrolidin-1-yl)-S-fluoro-3-oxo-3H-pyrido[3,2,1-kl]phenoxazine-2-carboxylic acid]			5.41	3.9 µM	MIC ([2]; wild type): 12.5 µM (≈ 6.21 µg/mL); Whole cell based antibacterial activity (MIC) E. coli Imp4213 (BAS3023) [1]: 12.5 µM; MIC (E. coli (MG1655) WT): >200 µM; IC50 (E. coli topoisomerase I; [4]): 3.9 µM
Nc1ccc2c(c1)Oc1c(N3CC[C@H](N)C3)c(F)cc3c(=O)c(C(=O)O)cn-2c13 [Compound 17a, (S)-9-amino-6-(3-aminopyrrolidin-1-yl)-S-fluoro-3-oxo-3H-pyrido[3,2,1-kl]phenoxazine-2-carboxylic acid]			6.14	0.48 to 0.97 µM	MIC ([2]; wild type): 6.25 µM (≈ 2.48 µg/mL); Whole cell based antibacterial activity (MIC) E. coli Imp4213 (BAS3023) [1]: 1.56 µM; IC50 (Vero cells): > 63.1 µM; MIC (M. tuberculosis (H37Rv)): >63.1 µM; MIC (E. coli (MG1655) WT): >200 µM; IC50 (E. coli topoisomerase I; [4]): 0.73 µM
Nc1ccc2c(c1)Oc1c(N3CC[C@@H](N)C3)c(F)cc3c(=O)c(C(=O)O)cn-2c13 [Compound 17b, (R)-9-amino-6-(3-aminopyrrolidin-1-yl)-5-fluoro-3-oxo-3H-pyrido[3,2,1-kl]phenoxazine-2-carboxylic acid]	6.25 µM (≈ 2.48 µg/mL)	> 200 µM	6.14		IC50 (Vero cells; Chlorocebus sabaeus, Vero): > 63.1 µM; MIC (M. tuberculosis (H37Rv)): >63.1 µM; MIC (M. tuberculosis (H37Rv); Mycobacterium tuberculosis, H37RV): > 63.1 µM
